Results reported in patent US20060069132A1, “Azolecarboxamide herbicides” (priority 2004, published 2006).

Tests used:
barnyardgrass = test: Test A pre-/postemergence herbicide test; assay type: in vivo, Echinochloa crus-galli
How it was run: (§1)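 Visual injury rating on a 0–100 scale (0 no effect, 100 complete control) versus untreated controls, about ten days after treatment in greenhouse. Pre: directed soil spray onto seeded sandy loam. Post: spray to runoff on plants 2–10 cm tall at one- to two-leaf stage.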

large crabgrass = test: Test C pre-/postemergence herbicide test; assay type: in vivo, Digitaria sanguinalis; conditions: for Crabgrass, Large plant response rating: Preemergence, scale 0 to 100, 0 no effect, 100 complete control
How it was run: (§2)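 Pre- and postemergence application, solvent/surfactant formulation; post at 1- to 4-leaf stage (2–18 cm). Greenhouse 12–14 d. Visual rating vs controls, 0 = no effect, 100 = complete control.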

giant foxtail = test: Test C pre-/postemergence herbicide test; assay type: in vivo, Setaria faberi; conditions: for Foxtail, Giant plant response rating: Preemergence, scale 0 to 100, 0 no effect, 100 complete control
How it was run: as §2

velvetleaf = test: Test C pre-/postemergence herbicide test; assay type: in vivo, Abutilon theophrasti; conditions: for Velvetleaf plant response rating: Preemergence, scale 0 to 100, 0 no effect, 100 complete control
How it was run: as §2

bermudagrass = test: Test C pre-/postemergence herbicide test; assay type: in vivo, Cynodon dactylon; conditions: for Bermudagrass plant response rating: Preemergence, 500 g ai/ha
How it was run: as §2

morningglory [1] = test: Test A pre-/postemergence herbicide test; assay type: in vivo, Ipomoea spp.
How it was run: as §1

lambsquarters = test: Test C pre-/postemergence herbicide test; assay type: in vivo, Chenopodium album; conditions: for Lambsquarters plant response rating: Preemergence, scale 0 to 100, 0 no effect, 100 complete control
How it was run: as §2

morningglory [2] = test: Test C pre-/postemergence herbicide test; assay type: in vivo, Ipomoea coccinea; set-up: key to Plant response rating, Morningglory: 0 = no effect, 100 = complete control; conditions: for Morningglory plant response rating: Preemergence, scale 0 to 100, 0 no effect, 100 complete control
How it was run: as §2

redroot pigweed = test: Test A pre-/postemergence herbicide test; assay type: in vivo, Amaranthus retroflexus
How it was run: as §1

common ragweed = test: Test C pre-/postemergence herbicide test; assay type: in vivo, Ambrosia elatior; set-up: key to Plant response rating, Ragweed: 0 = no effect, 100 = complete control; conditions: for Ragweed plant response rating: Preemergence, scale 0 to 100, 0 no effect, 100 complete control
How it was run: as §2

[3] = system: smallflower umbrella sedge; test: Test C flooded paddy test; assay type: in vivo, Cyperus difformis
rice = test: Test C flooded paddy test; assay type: in vivo, Oryza sativa
How it was run: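 Injury scored visually against controls on a 0 (no effect) to 100 (complete control) scale, 12 to 14 days after treatment in greenhouse. Flooded paddy plants treated at 2-leaf stage; postemergence plants at 1- to 4-leaf stage, 2 to 18 cm tall.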

[4] = Postemergence, 500 g ai/ha, 0 to 100 scale, 0 no effect, 100 complete control
[5] = Postemergence, 2000 g ai/ha, 0 to 100 scale, 0 no effect, 100 complete control
[6] = Preemergence, 2000 g ai/ha, visual rating, 0 to 100 scale (0 no effect, 100 complete control)
[7] = preemergence, 500 g ai/ha, visual injury, 0 to 100 scale (0 no effect, 100 complete control)
[8] = 62 g ai/ha, preemergence, scale 0 to 100
[9] = 125 g ai/ha, scale 0 (no effect) to 100 (complete control), visual, 12 to 14 days, preemergence
[10] = 250 g ai/ha, scale 0-100, preemergence
[11] = 500 g ai/ha, scale 0 to 100 (0 no effect, 100 complete control), visual, 12 to 14 days, preemergence
[12] = 62 g ai/ha, preemergence, scale 0 to 100, 0 no effect, 100 complete control
[13] = scale 0 to 100, 0 no effect, 100 complete control
[14] = 125 g ai/ha, scale 0 to 100 (0 no effect, 100 complete control)
[15] = 250 g ai/ha, scale of 0 to 100, 0 is no effect, 100 is complete control
[16] = 500 g ai/ha, visual rating after 12 to 14 days, scale 0 to 100 (0 no effect, 100 complete control)
[17] = 250 g ai/ha, scale 0 to 100 (0 no effect, 100 complete control), visual, 12 to 14 days, preemergence
[18] = 62 g ai/ha, scale 0 to 100 (0 no effect, 100 complete control)
[19] = 125 g ai/ha, scale of 0 to 100, 0 is no effect, 100 is complete control

CCNC(=O)c1cccc(NC(=O)c2sc(C(C)(C)C)nc2CC)n1 [Compound 213]
Barnyardgrass plant response rating (barnyardgrass; [4]): 25 | Plant response rating, Barnyardgrass (barnyardgrass; [5]): 45 | Barnyardgrass plant response rating (barnyardgrass; [6]): 70 | Barnyardgrass plant response rating (barnyardgrass; [7]): 40 | Plant response rating, Crabgrass, Large (large crabgrass; [8]): 0 | Plant response rating, Crabgrass, Large (large crabgrass; [9]): 50 | Plant response rating, Crabgrass, Large (large crabgrass; [10]): 100 | Plant response rating, Crabgrass, Large (large crabgrass; [11]): 100 | Plant response rating, Foxtail, Giant (giant foxtail; [8]): 30 | Plant response rating, Foxtail, Giant (giant foxtail; [9]): 50 | Plant response rating, Foxtail, Giant (giant foxtail; [10]): 95 | Plant response rating, Foxtail, Giant (giant foxtail; [11]): 100 | Plant response rating, Velvetleaf (velvetleaf; [8]): 0 | Plant response rating, Velvetleaf (velvetleaf; [9]): 0 | Plant response rating, Velvetleaf (velvetleaf; [10]): 0 | Plant response rating, Velvetleaf (velvetleaf; [11]): 0 | Plant response rating, Bermudagrass (bermudagrass; [12]): 50 | Plant response rating, Bermudagrass (bermudagrass; [9]): 60 | Plant response rating, Bermudagrass (bermudagrass; [10]): 80 | Bermudagrass plant response rating (bermudagrass; [13]): 90 | Morningglory plant response rating (morningglory [1]; [4]): 20 | Plant response rating, Morningglory (morningglory [1]; [5]): 10 | Morningglory plant response rating (morningglory [1]; [6]): 60 | Morningglory plant response rating (morningglory [1]; [7]): 25 | Plant response rating, Lambsquarters (lambsquarters; [8]): 80 | Plant response rating, Lambsquarters (lambsquarters; [9]): 95 | Plant response rating, Lambsquarters (lambsquarters; [10]): 100 | Plant response rating, Lambsquarters (lambsquarters; [11]): 100 | Plant response rating, Morningglory (morningglory [2]; [8]): 0 | Plant response rating, Morningglory (morningglory [2]; [9]): 0 | Plant response rating, Morningglory (morningglory [2]; [10]): 0 | Plant response rating, Morningglory (morningglory [2]; [11]): 0 | Pigweed plant response rating (redroot pigweed; [4]): 30 | Plant response rating, Pigweed (redroot pigweed; [5]): 40 | Pigweed plant response rating (redroot pigweed; [6]): 95 | Pigweed plant response rating (redroot pigweed; [7]): 75 | Plant response rating, Ragweed (common ragweed; [8]): 0 | Plant response rating, Ragweed (common ragweed; [9]): 0 | Plant response rating, Ragweed (common ragweed; [10]): 0 | Plant response rating, Ragweed (common ragweed; [11]): 0

CC(=NO)c1cccc(NC(=O)c2sc(C(C)(C)C)nc2C)c1 [Compound 195]
Barnyardgrass plant response rating (barnyardgrass; [4]): 15 | Plant response rating, Barnyardgrass (barnyardgrass; [5]): 50 | Barnyardgrass plant response rating (barnyardgrass; [6]): 45 | Barnyardgrass plant response rating (barnyardgrass; [7]): 20 | Plant response rating, Crabgrass, Large (large crabgrass; [8]): 0 | Plant response rating, Crabgrass, Large (large crabgrass; [9]): 0 | Plant response rating, Crabgrass, Large (large crabgrass; [10]): 5 | Crabgrass, Large plant response rating (large crabgrass; 500 g ai/ha): 70 | Plant response rating, Foxtail, Giant (giant foxtail; [8]): 0 | Plant response rating, Foxtail, Giant (giant foxtail; [9]): 0 | Plant response rating, Foxtail, Giant (giant foxtail; [10]): 0 | Foxtail, Giant plant response rating (giant foxtail; 500 g ai/ha): 20 | Plant response rating, Velvetleaf (velvetleaf; [8]): 0 | Plant response rating, Velvetleaf (velvetleaf; [9]): 50 | Plant response rating, Velvetleaf (velvetleaf; [10]): 55 | Velvetleaf plant response rating (velvetleaf; 500 g ai/ha): 100 | Plant response rating, Bermudagrass (bermudagrass; [12]): 0 | Plant response rating, Bermudagrass (bermudagrass; [9]): 0 | Plant response rating, Bermudagrass (bermudagrass; [10]): 30 | Bermudagrass plant response rating (bermudagrass; [13]): 65 | Morningglory plant response rating (morningglory [1]; [4]): 10 | Plant response rating, Morningglory (morningglory [1]; [5]): 10 | Morningglory plant response rating (morningglory [1]; [6]): 10 | Morningglory plant response rating (morningglory [1]; [7]): 5 | Plant response rating, Lambsquarters (lambsquarters; [8]): 0 | Plant response rating, Lambsquarters (lambsquarters; [9]): 0 | Plant response rating, Lambsquarters (lambsquarters; [10]): 10 | Lambsquarters plant response rating (lambsquarters; 500 g ai/ha): 95 | Plant response rating, Morningglory (morningglory [2]; [8]): 0 | Plant response rating, Morningglory (morningglory [2]; [9]): 0 | Plant response rating, Morningglory (morningglory [2]; [10]): 0 | Morningglory plant response rating (morningglory [2]; 500 g ai/ha): 0 | Pigweed plant response rating (redroot pigweed; [4]): 5 | Plant response rating, Pigweed (redroot pigweed; [5]): 25 | Pigweed plant response rating (redroot pigweed; [6]): 0 | Pigweed plant response rating (redroot pigweed; [7]): 0 | Plant response rating, Ragweed (common ragweed; [8]): 20 | Plant response rating, Ragweed (common ragweed; [9]): 40 | Plant response rating, Ragweed (common ragweed; [10]): 80 | Ragweed plant response rating (common ragweed; 500 g ai/ha): 90

CCN(C)C(=O)c1ccc(F)c(NC(=O)C2CC(C(C)(C)C)=NN2CC)c1 (racemic) [Compound 307]
Plant response rating, Crabgrass, Large (large crabgrass; [8]): 80 | Plant response rating, Crabgrass, Large (large crabgrass; [9]): 100 | Plant response rating, Crabgrass, Large (large crabgrass; [10]): 100 | Plant response rating, Crabgrass, Large (large crabgrass; [11]): 100 | Plant response rating, Foxtail, Giant (giant foxtail; [8]): 70 | Plant response rating, Foxtail, Giant (giant foxtail; [9]): 85 | Plant response rating, Foxtail, Giant (giant foxtail; [10]): 100 | Plant response rating, Foxtail, Giant (giant foxtail; [11]): 100 | Plant response rating, Velvetleaf (velvetleaf; [8]): 70 | Plant response rating, Velvetleaf (velvetleaf; [10]): 100 | Plant response rating, Velvetleaf (velvetleaf; [11]): 100 | Plant response rating, Bermudagrass (bermudagrass; [12]): 90 | Plant response rating, Bermudagrass (bermudagrass; [9]): 100 | Plant response rating, Bermudagrass (bermudagrass; [10]): 100 | Bermudagrass plant response rating (bermudagrass; [13]): 100 | Sedge, Umbrella plant response rating ([3]; 62 g ai/ha, scale 0 to 100): 40 | Sedge, Umbrella plant response rating [3, 14]: 70 | Sedge, Umbrella plant response rating [3, 15]: 80 | Plant response rating, Sedge, Umbrella [3, 16]: 85 | Rice plant response rating (rice; 62 g ai/ha, scale 0 to 100): 55 | Rice plant response rating (rice; [14]): 60 | Rice plant response rating (rice; [15]): 65 | Plant response rating, Rice (rice; [16]): 80 | Plant response rating, Lambsquarters (lambsquarters; [8]): 100 | Plant response rating, Lambsquarters (lambsquarters; [9]): 100 | Plant response rating, Lambsquarters (lambsquarters; [10]): 100 | Plant response rating, Lambsquarters (lambsquarters; [11]): 100 | Plant response rating, Morningglory (morningglory [2]; [8]): 0 | Plant response rating, Morningglory (morningglory [2]; [9]): 10 | Plant response rating, Morningglory (morningglory [2]; [10]): 10 | Plant response rating, Morningglory (morningglory [2]; [11]): 15 | Plant response rating, Ragweed (common ragweed; [8]): 80 | Plant response rating, Ragweed (common ragweed; [10]): 100 | Plant response rating, Ragweed (common ragweed; [11]): 100

CCN(C)C(=O)c1cccc(NC(=O)c2cc(C(C)(C)C)nn2CC)c1 [Compound 48]
Plant response rating (0 = no effect, 100 = complete control), Crabgrass, Large (large crabgrass; 62 g ai/ha, preemergence): 0 | Plant response rating, Crabgrass, Large (large crabgrass; [9]): 30 | Plant response rating, Crabgrass, Large (large crabgrass; [17]): 70 | Crabgrass, Large plant response rating (large crabgrass; 500 g ai/ha): 90 | Plant response rating (0 = no effect, 100 = complete control), Foxtail, Giant (giant foxtail; 62 g ai/ha, preemergence): 0 | Plant response rating, Foxtail, Giant (giant foxtail; [9]): 0 | Plant response rating, Foxtail, Giant (giant foxtail; [17]): 10 | Foxtail, Giant plant response rating (giant foxtail; 500 g ai/ha): 50 | Plant response rating (0 = no effect, 100 = complete control), Velvetleaf (velvetleaf; 62 g ai/ha, preemergence): 0 | Plant response rating, Velvetleaf (velvetleaf; [9]): 0 | Plant response rating, Velvetleaf (velvetleaf; [17]): 10 | Velvetleaf plant response rating (velvetleaf; 500 g ai/ha): 70 | Plant response rating (0 = no effect, 100 = complete control), Bermudagrass (bermudagrass; 62 g ai/ha, preemergence): 80 | Plant response rating, Bermudagrass (bermudagrass; [9]): 90 | Plant response rating, Bermudagrass (bermudagrass; [17]): 90 | Bermudagrass plant response rating (bermudagrass; [13]): 95 | Sedge, Umbrella plant response rating ([3]; 16 g ai/ha, scale 0 to 100): 0 | Sedge, Umbrella plant response rating ([3]; 31 g ai/ha, scale 0 to 100): 0 | Sedge, Umbrella plant response rating [3, 18]: 60 | Sedge, Umbrella plant response rating [3, 19]: 60 | Rice plant response rating (rice; 16 g ai/ha, scale 0 to 100): 0 | Rice plant response rating (rice; 31 g ai/ha, scale 0 to 100): 0 | Rice plant response rating (rice; [18]): 0 | Rice plant response rating (rice; [19]): 20 | Plant response rating (0 = no effect, 100 = complete control), Lambsquarters (lambsquarters; 62 g ai/ha, preemergence): 85 | Plant response rating, Lambsquarters (lambsquarters; [9]): 95 | Plant response rating, Lambsquarters (lambsquarters; [17]): 95 | Lambsquarters plant response rating (lambsquarters; 500 g ai/ha): 95 | Plant response rating (0 = no effect, 100 = complete control), Morningglory (morningglory [2]; 62 g ai/ha, preemergence): 0 | Plant response rating, Morningglory (morningglory [2]; [17]): 0 | Morningglory plant response rating (morningglory [2]; 500 g ai/ha): 20 | Plant response rating (0 = no effect, 100 = complete control), Ragweed (common ragweed; 62 g ai/ha, preemergence): 0 | Plant response rating, Ragweed (common ragweed; [9]): 5 | Plant response rating, Ragweed (common ragweed; [17]): 70 | Ragweed plant response rating (common ragweed; 500 g ai/ha): 100
